Experimental data from PMC12156997, “Dihydromyricetin May Attenuate Skin Aging as a RAGE Inhibitor” (Nutrients, 2025).

How the values were obtained:
[1] = biological target: T1, RAGE (receptor for advanced glycation end products) (Homo sapiens, UniProt Q15109); test: SPR (Biacore 1S+, CM5 chip, RAGE immobilized, multi-cycle kinetics); type: binding
T1 construct: gene AGER

[2] = biological target: T1, RAGE (receptor for advanced glycation end products); test: SPR (Biacore 1S+, CM5 chip, RAGE immobilized, multi-cycle kinetics); known RAGE inhibitor as reference; type: binding

T1 sequence (Q15109 23-344): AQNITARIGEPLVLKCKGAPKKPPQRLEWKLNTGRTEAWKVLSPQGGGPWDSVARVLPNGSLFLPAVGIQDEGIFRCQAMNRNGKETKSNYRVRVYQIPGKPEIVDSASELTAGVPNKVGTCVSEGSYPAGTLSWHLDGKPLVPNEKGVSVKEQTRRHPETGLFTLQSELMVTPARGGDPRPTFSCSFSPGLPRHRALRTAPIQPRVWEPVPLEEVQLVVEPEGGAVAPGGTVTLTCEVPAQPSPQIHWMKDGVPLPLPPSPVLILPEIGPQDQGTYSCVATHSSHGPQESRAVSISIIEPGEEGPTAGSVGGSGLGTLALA

Row | SMILES | Kd [1] [µM] | Kd [2] [µM]
1 | O=C1c2c(O)cc(O)cc2O[C@H](c2cc(O)c(O)c(O)c2)[C@H]1O [DHM, Dihydromyricetin] | 28.7 | 
2 | O=C(c1ccc(Cl)cc1)N(Cc1ccccc1)C1CCCCC1 [FPS-ZM1] |  | 40.7
